pIC50: −log10 of the molar value.

One series deals with HIV-1 PR (Human immunodeficiency virus type 1 group M subtype B, UniProt P04585). The series is described as follows: HIV-protease inhibitory activity assay (FRET peptide substrate). The note with it: Test Example 1. The series is classed as biochemical. The method, boiled down:
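Inhibition of HIV-1 protease was measured as loss of fluorescence dequenching of a HiLyte Fluor 488/QXL 520 peptide at 2 μmol/L, pH 4.8, room temperature, 60 minute reaction. IC50 was derived by nonlinear four-parameter fitting.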
The compound `COc1ccc(S(=O)(=O)N(CC(C)C)CC(O)C(Cc2ccc(N(C)Cc3ccccc3C(=O)Nc3sc4c(c3C(=O)O)CC(C)(C)CC4)cc2)NC(=O)OC2COC3(C)OCCC23)cc1` (stereo not drawn) [Compound I-407] gave a pIC50 of 8.42. Still for that read-out and setting: then `COc1ccc(S(=O)(=O)N(CC(C)C)CC(O)C(Cc2ccc(N(C)Cc3ccc(C)cc3-c3sc4c(c3C(=O)O)CC(C)(C)CC4)cc2)NC(=O)OC2COC3(C)OCCC23)cc1` (stereo not drawn) [Compound I-488], with 8.66; and `COc1ccc(S(=O)(=O)N(CC2CCCC2)CC(O)C(Cc2ccc(OCc3ccccc3Cn3nc4c(c3C(=O)O)CC(C)(C)CC4)cc2)NC(=O)OC2COC3(C)OCCC23)cc1` (stereo not drawn) [Compound I-216], with 8.71.

The compound `COc1ccc(S(=O)(=O)N(CC(C)C)CC(O)C(Cc2ccc(N(Cc3ccncc3)Cc3ccccc3-c3sc4c(c3C(=O)O)CC(C)(C)CC4)cc2)NC(=O)OC2COC3(C)OCCC23)cc1` (stereo not drawn) [Compound I-425] gave a pIC50 of 8.58.

For `COc1ccc(S(=O)(=O)N(CC(C)C)CC(O)C(Cc2ccc(NCc3ccccc3-c3c(C(=O)O)cnc4ccc(OC)cc34)cc2)NC(=O)OC2COC3(C)OCCC23)cc1` (stereo not drawn) [Compound I-500], the pIC50 is 8.75. The same measure, in the same setting: then `COc1ccc(S(=O)(=O)N(CC(C)C)CC(O)C(Cc2ccc(NCC3CCCCC3NC(=O)c3sc4c(c3C(=O)O)CC(C)(C)CC4)cc2)NC(=O)OC2COC3(C)OCCC23)cc1` (stereo not drawn) [Compound I-611], with 8.71; and `COc1ccc(S(=O)(=O)N(CC(C)C)CC(O)C(Cc2ccc(N(C)C3CCc4c(-c5sc6c(c5C(=O)O)CC(C)(C)CC6)cccc43)cc2)NC(=O)OC2COC3(C)OCCC23)cc1` (stereo not drawn) [Compound I-710], with 8.37; and `COc1ccc(S(=O)(=O)N(CC(C)C)CC(O)C(Cc2ccc(OCC3CCCN(c4ccc(C#N)cc4-c4sc5c(c4C(=O)O)CC(C)(C)CC5)C3)cc2)NC(=O)OC2COC3(C)OCCC23)cc1` (stereo not drawn) [Compound I-328], with 7.89. On the same count and under the same terms, then `COc1ccc(S(=O)(=O)N(CC(C)C)CC(O)C(Cc2ccc(NCC3CCCC3c3sc4c(c3C(=O)O)CC(C)(C)CC4)cc2)NC(=O)OC2COC3OCCC23)cc1` (stereo not drawn) [Compound I-878], with 8.53; and `COc1ccc(S(=O)(=O)N(CC(C)C)CC(O)C(Cc2ccc(OCCNC(=O)c3cc(C)cc(C)c3O)cc2)NC(=O)OC2COC3(C)OCCC23)cc1` (stereo not drawn) [Compound I-171], with 9.03; and `COc1ccc(S(=O)(=O)N(CC(C)C)CC(O)C(Cc2ccc(N(C)Cc3cc(N4CCC4)ccc3-c3sc4c(c3C(=O)O)CC(C)(C)CC4)cc2)NC(=O)OC2COC3(C)OCCC23)cc1` (stereo not drawn) [Compound I-708], with 8.78. In turn, `CC1(C)CCc2sc(-c3cccc(CCCN(C[C@@H](O)[C@H](Cc4ccccc4)NC(=O)O[C@H]4CO[C@@]5(C)OCC[C@@H]45)S(=O)(=O)c4ccc5ncsc5c4)c3)c(C(=O)O)c2C1` [Compound I-36] gave a pIC50 of 8.73. Still for that read-out and setting: then `CC(C)CN(CC(O)C(Cc1ccc(OCCOc2ccc(-c3ccc(F)cc3F)cc2C(=O)O)cc1)NC(=O)OC1COC2OCCC12)S(=O)(=O)c1ccc2ncsc2c1` (stereo not drawn) [Compound I-814], with 9.12; and `COc1ccc(S(=O)(=O)N(CC(C)C)CC(O)C(Cc2ccc(NCc3cc(N4CCCCC4=O)ccc3-c3sc4c(c3C(=O)O)CC(C)(C)CC4)cc2)NC(=O)OC2COC3(C)OCCC23)cc1` (stereo not drawn) [Compound I-729], with 8.79; and `CC(C)CN(C[C@@H](O)[C@H](Cc1ccc(OCc2ccccc2-c2sc3c(c2C(=O)O)CC(C)(C)CC3)cc1)NC(=O)O[C@H]1CO[C@@]2(C)OCC[C@@H]12)S(=O)(=O)c1ccc(N)c(CCC(N)=O)c1` [Compound I-17], with 8.91. `COc1ccc(S(=O)(=O)N(CC(C)C)CC(O)C(Cc2ccc(NCc3ccc(OCC(=O)O)cc3)cc2)NC(=O)OC2COC3(C)OCCC23)cc1` (stereo not drawn) [Compound I-321]: the pIC50 is 8.72. The same measure, in the same setting: then `COc1ccc(S(=O)(=O)N(CC(C)C)CC(O)C(Cc2ccc(N(Cc3nccs3)Cc3ccccc3-c3sc4c(c3C(=O)O)CC(C)(C)CC4)cc2)NC(=O)OC2COC3(C)OCCC23)cc1` (stereo not drawn) [Compound I-431], with 8.43; and `CC(C)CN(CC(O)C(Cc1ccc(OCc2cc(-c3ccc(F)cc3F)ccc2C(=O)O)cc1)NC(=O)OC1COC2(C)OCCC12)S(=O)(=O)c1ccc2ncsc2c1` (stereo not drawn) [Compound I-61], with 8.72. On the same count and under the same terms, then `COc1ccc(S(=O)(=O)N(CC(C)C)CC(O)C(Cc2ccc(N3CCC(Oc4ccc(-c5sc6c(c5C(=O)O)CC(C)(C)CC6)cc4)C3)cc2)NC(=O)OC2COC3(C)OCCC23)cc1` (stereo not drawn) [Compound I-350], with 8.27; and `COc1ccc(S(=O)(=O)N(CC(C)C)CC(O)C(Cc2ccc(NCCCc3sc4c(c3C(=O)O)CC(C)(C)CC4)cc2)NC(=O)OC2COC3(C)OCCC23)cc1` (stereo not drawn) [Compound I-335], with 8.74; and `COc1ccc(S(=O)(=O)N(CC(C)C)CC(O)C(Cc2ccc(CN(C)c3cccc(-c4sc5c(c4C(=O)O)CC(C)(C)CC5)c3)cc2)NC(=O)OC2COC3(C)OCCC23)cc1` (stereo not drawn) [Compound I-264], with 8.45.

In turn, `COc1ccc(S(=O)(=O)N(CC(C)C)CC(O)C(Cc2ccc(OCc3ccccc3-c3ccc4c(c3)C(=O)C(c3ccc(C(F)(F)F)cc3)C4=O)cc2)NC(=O)OC2COC3(C)OCCC23)cc1` (stereo not drawn) [Compound I-71] gave a pIC50 of 8.75. `COc1ccc(S(=O)(=O)N(CC(C)C)CC(O)C(Cc2ccc(-n3cccc3)cc2)NC(=O)OC2COC3(C)OCCC23)cc1` (stereo not drawn) [Compound I-521] had a pIC50 of 8.55.

In the case of `COc1ccc(S(=O)(=O)N(CC(C)C)CC(O)C(Cc2ccc(NCc3ccccc3-c3cc4c(cc3C(=O)O)OCCO4)cc2)NC(=O)OC2COC3(C)OCCC23)cc1` (stereo not drawn) [Compound I-496], the pIC50 is 8.74. The same measure, in the same setting: then `COc1ccc(S(=O)(=O)N(CC(C)C)CC(O)C(Cc2ccc(N(Cc3ccco3)Cc3ccccc3-c3sc4c(c3C(=O)O)CC(C)(C)CC4)cc2)NC(=O)OC2COC3(C)OCCC23)cc1` (stereo not drawn) [Compound I-420], with 7.88.

Turning to `COc1ccc(S(=O)(=O)N(CC(C)C)CC(O)C(Cc2ccc(OCC3COCC3c3sc4c(c3C(=O)O)CC(C)(C)CC4)cc2)NC(=O)OC2COC3(C)OCCC23)cc1` (stereo not drawn) [Compound I-395], the pIC50 is 8.73. Consider `COc1ccc(S(=O)(=O)N(CC(C)C)CC(O)C(Cc2ccc(OCc3ccccc3-c3ccc4c(c3)C(=O)C(c3ccc(F)cc3)C4=O)cc2)NC(=O)OC2COC3(C)OCCC23)cc1` (stereo not drawn) [Compound I-70], for which the pIC50 was 8.97.

The compound `COc1ccc(S(=O)(=O)N(CC(C)C)CC(O)C(Cc2ccc(NCc3ccc(C(=O)Nc4sc5c(c4C(=O)O)CC(C)(C)CC5)cc3)cc2)NC(=O)OC2COC3(C)OCCC23)cc1` (stereo not drawn) [Compound I-437] gave a pIC50 of 8.35. Same read-out and setting: then `COc1ccc(S(=O)(=O)N(CC(C)C)CC(O)C(Cc2ccc(N(C)CC3CCCCC3c3sc4c(c3C(=O)O)CC(C)(C)CC4)cc2)NC(=O)OC2COC3(C)OCCC23)cc1` (stereo not drawn) [Compound I-358], with 8.41; and `COc1ccc(S(=O)(=O)N(CC(C)C)CC(O)C(Cc2ccc(N(C)CCCc3sc4c(c3C(=O)O)CC(C)(C)CC4)cc2)NC(=O)OC2COC3(C)OCCC23)cc1` (stereo not drawn) [Compound I-336], with 8.67; and `CC(C)CN(CC(O)C(Cc1ccc(OCc2ccc(-c3ccc(F)cc3F)nc2C(=O)O)cc1)NC(=O)OC1COC2OCCC12)S(=O)(=O)c1ccc2ncsc2c1` (stereo not drawn) [Compound I-840], with 9.15. Turning to `COc1ccc(S(=O)(=O)N(CC(C)C)CC(O)C(Cc2ccc(NCc3cc(C)ccc3C(=O)Nc3sc4c(c3C(=O)O)CC(C)(C)CC4)cc2)NC(=O)OC2COC3(C)OCCC23)cc1` (stereo not drawn) [Compound I-717], the pIC50 was 8.56. The same measure, in the same setting: then `CC(C)CN(CC(O)C(Cc1ccc(N(C)Cc2ccccc2C(=O)Nc2sc3c(c2C(=O)O)CC(C)(C)CC3)cc1)NC(=O)OC1COC2OCCC12)S(=O)(=O)c1ccc2c(c1)OCO2` (stereo not drawn) [Compound I-879], with 8.42; and `COc1ccc(S(=O)(=O)N(CC(C)C)CC(O)C(Cc2ccc(OCc3ccnc(C(=O)O)c3)cc2)NC(=O)OC2COC3(C)OCCC23)cc1` (stereo not drawn) [Compound I-306], with 8.72; and `COc1ccc(S(=O)(=O)N(CC(C)C)CC(O)C(Cc2ccc(OCc3ccccc3-c3ccc(Cn4nc(C(=O)O)c5c4CCC(C)(C)C5)cc3)cc2)NC(=O)OC2COC3(C)OCCC23)cc1` (stereo not drawn) [Compound I-213], with 8.75. The same measure, in the same setting: then `CCCCN(Cc1ccccc1-c1sc2c(c1C(=O)O)CC(C)(C)CC2)c1ccc(CC(NC(=O)OC2COC3(C)OCCC23)C(O)CN(CC(C)C)S(=O)(=O)c2ccc(OC)cc2)cc1` (stereo not drawn) [Compound I-457], with 8.25; and `COc1ccc(S(=O)(=O)N(CC(C)C)CC(O)C(Cc2ccc(N(C)Cc3ccccc3-c3c(C(=O)O)c4ccccc4n3C)cc2)NC(=O)OC2COC3(C)OCCC23)cc1` (stereo not drawn) [Compound I-412], with 8.82; and `COc1ccc(S(=O)(=O)N(CC(C)C)CC(O)C(Cc2ccc(OCc3ccccc3-c3sc(N4CCCC(C)(C)C4)nc3C(=O)O)cc2)NC(=O)OC2COC3OCCC23)cc1` (stereo not drawn) [Compound I-846], with 8.92. Take `COc1ccc(S(=O)(=O)N(CC(C)C)CC(O)C(Cc2ccc(OCc3ccccc3-c3c(OCc4ccccc4)noc3C(=O)O)cc2)NC(=O)OC2COC3(C)OCCC23)cc1` (stereo not drawn) [Compound I-344]: the pIC50 is 8.55.

Turning to `CC(C)CN(CC(O)C(Cc1ccc(NCc2cc(C(F)(F)F)ccc2-c2sc3c(c2C(=O)O)CC(C)(C)CC3)cc1)NC(=O)OC1COC2OCCC12)S(=O)(=O)c1ccc2ncsc2c1` (stereo not drawn) [Compound I-871], the pIC50 is 8.31.

System in another series: not listed separately
The series is described as follows: Evaluation of total body clearance (CLtot), intravenous administration. The series is classed as in vivo, Sprague-Dawley (SD). Particulars: rat (SD), intravenous administration 0.5-10 mg/kg; CLtot = dose/AUC. How it is done: Dose: Intravenous administration with designated doses was selected. (Doses were changed depending on compounds.) • 0.5-10 mg/kg (n=2-3) Preparation of dosing formulation: The dosing solution was prepared by dissolving in an adequate solvent. Administration method: The dosing solution was injected into the tail vein by a syringe with a needle Blood sampling: The blood was collected at the scheduled time and obtained the plasma. Plasma concentrations of the compound were measured by LC/MS/MS. Statistical analysis: Area under the plasma concentration-time curve (AUC) of the compound was calculated by pharmacokinetic analysis software, WinNonlin™ and CLtot was calculated by dividing the dose by AUC.
`COc1ccc(S(=O)(=O)N(CC(C)C)CC(O)C(Cc2ccc(N(C)Cc3ccccc3C(=O)Nc3sc4c(c3C(=O)O)CC(C)(C)CC4)cc2)NC(=O)OC2COC3(C)OCCC23)cc1` (stereo not drawn) [Compound I-407] yielded a rat_CLt of 0.31 mL/min/kg. Compound `COc1ccc(S(=O)(=O)N(CC(C)C)CC(O)C(Cc2ccc(N(C)Cc3ccc(C)cc3-c3sc4c(c3C(=O)O)CC(C)(C)CC4)cc2)NC(=O)OC2COC3(C)OCCC23)cc1` (stereo not drawn) [Compound I-488] displayed a rat_CLt of 0.501 mL/min/kg.

Values taken from patent publication US20170253607A1, “LONG-ACTING HIV PROTEASE INHIBITOR” (Shionogi & Co., Ltd., priority 2014, published 2017).
